In brackets after ≈: the same amount, converted by molar mass. Read-outs that look alike come from different tables or passages of the source.
Experiments:
[1] = target: T1, Dictyostelium discoideum myosin II motor domain (DdMD) (Dictyostelium discoideum, UniProt P08799); experiment: biochemical; details: for IC50: 20 °C
T1 construct: Dictyostelium discoideum myosin II motor domain (DdMD)
T1 sequence (P08799 86-759 limits assumed): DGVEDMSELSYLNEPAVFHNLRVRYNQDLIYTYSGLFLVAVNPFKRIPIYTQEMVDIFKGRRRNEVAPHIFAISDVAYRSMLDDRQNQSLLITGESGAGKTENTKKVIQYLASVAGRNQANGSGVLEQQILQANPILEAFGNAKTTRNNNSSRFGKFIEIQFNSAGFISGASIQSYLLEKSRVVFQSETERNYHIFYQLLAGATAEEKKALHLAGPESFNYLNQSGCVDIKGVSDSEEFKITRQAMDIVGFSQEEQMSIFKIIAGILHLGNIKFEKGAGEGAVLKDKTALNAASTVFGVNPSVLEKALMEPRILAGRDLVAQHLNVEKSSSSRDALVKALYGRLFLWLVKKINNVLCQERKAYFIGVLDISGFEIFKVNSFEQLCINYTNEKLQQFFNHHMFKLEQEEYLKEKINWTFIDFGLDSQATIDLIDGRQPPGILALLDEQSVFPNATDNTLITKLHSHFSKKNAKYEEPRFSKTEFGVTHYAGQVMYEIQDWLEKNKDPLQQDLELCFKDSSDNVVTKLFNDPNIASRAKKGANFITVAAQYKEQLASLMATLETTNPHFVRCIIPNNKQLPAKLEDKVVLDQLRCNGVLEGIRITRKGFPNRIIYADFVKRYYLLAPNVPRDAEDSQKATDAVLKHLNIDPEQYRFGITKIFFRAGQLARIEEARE
Description: Myosin and actin together with the indicated concentration of the inhibitor were pre-incubated for 5 minutes at room temperature and the measurements were initiated with 1 mM ATP. Data were corrected for background ATPase activity of actin. G-actin was prepared accordingly from rabbit skeletal muscle[24] and polymerized by 2 mM MgCl2 for 1 hour at room temperature. Measurements were performed in low salt buffer containing 5 mM HEPES, 2 mM MgCl2, 0.1 mM EGTA and 2 mM DTT at pH 7.2 or assay buffer containing 20 mM HEPES, 40 mM NaCl, 4 mM MgCl2 at pH 7.3 for basal ATPase activity measurements with DdMD.

[2] = pH 7.3
Description: (§1) 50 μM of the inhibitors were dissolved in assay buffer (see Experimental Procedures) containing 0.1 or 1 vol/vol% DMSO, centrifuged at the indicated times and the concentration of the supernatants were determined at each time point (Fig. 2a,b).
(§2) The DMSO content was 1%. […] The experiments were repeated three times.

[3] = test system: HeLa Kyoto H2B-mCherry eGFP-α-tubulin cells; experiment: Cell growth assay (cell number, cytokinesis)
Description: Cells incubated in different concentrations of the inhibitors were counted on each day for three days.

zebrafish embryos = experiment: Lifespan cytotoxicity assay; details: all blebbistatin concentrations
Description: Transgenic Tg(−8.0cldnb:lynEGFP)^zf106 (cldnb:EGFP)[25] zebrafish (Danio rerio) were maintained in the animal facility of Eötvös Loránd University. For the experiments investigating the skeletal and heart muscle of zebrafish, 6 dpf embryos were used. For cytotoxicity assays, 2 dpf embryos were dechorionated and placed in the indicated reagent concentrations. Embryos were kept in E3 medium (5 mM NaCl, 0.33 mM MgCl2, 0.33 mM CaCl2 and 0.17 mM KCl).
For the fast escape response experiments, 6 dpf embryos were placed in 50 μl drops of E3 medium on a plastic plate. […] 10 taps were carried out with 1 minute intervals every hour for 4 hours. The tapping force was standardized. The videos were recorded by a Ximea Camera (MQ003MG-CM) at 500 fps for 2 s. Data were analyzed by Flote software version 2.1 and maximal angular velocity parameters of C-start reflex were quantified. For the experiments investigating the effect of the inhibitors on the heart muscle of zebrafish, 6 dpf larvae were embedded in 1% agarose and kept in E3 in the presence of 20 μM concentrations of the inhibitors. […] Embryos were considered to be dead when the whole body became necrotic and the heart stopped beating. Dead embryos were removed from the experiment to prevent contamination. Images of zebrafish were captured with a Zeiss Stereo Lumar V12 microscope using a NeoLumar S 0.8x FWD 80mm objective at 50× zoom.

[4] = test system: rabbit skeletal, porcine cardiac and scallop striated myosins, vertebrate non-muscle myosin IIs and Dictyostelium discoideum myosin II; design: method as in PMID 15548862; details: read-out: IC50 actin-activated ATPase activity; cited from earlier work
smooth muscle myosin II = test system: smooth muscle myosin II; design: method as in PMID 15548862; details: read-out: IC50 actin activated ATPase activity; cited from earlier work
Acanthamoeba myosin II = test system: Acanthamoeba myosin II; design: method as in PMID 15548862; details: read-out: IC50 actin activated ATPase activity; cited from earlier work
zebrafish embryo = test system: zebrafish embryo; design: method as in PMID 24954740; details: after 24 hours of incubation; cited from earlier work
[5] = cited from earlier work
[6] = Photoconversion / photostability under 480 ± 10 nm irradiation; details: 5 μM, up to 15 minutes
Description: We compared para-aminoblebbistatin’s photostability to blebbistatin’s by irradiating the molecules in assay buffer at 480 ± 10 nm for different lengths of time (which is a typical GFP excitation range) and recorded the absorption spectra afterwards (Fig. 2d).
Their absorbance spectra were measured at each time point.

Description for physchem: as §1, §2

SMILES	Maximal inhibition of actin activated ATPase of DdMD [1] [%]	Maximal inhibition of basal ATPase of DdMD [1] [%]	IC50 ([1]; 15 μM actin, read-out: IC50 actin activated ATPase activity of DdMD) [µM]	IC50 ([1]; read-out: IC50 basal ATPase of DdMD) [µM]	Fold higher IC50 of AmBleb on DdMD ([1]; comparator not named (matches actin activated ratio to Bleb)) [times]	Time the supernatant concentration stayed constant ([2]; 298 μM) [h]	Solubility [2] [µM]	Solubility (physchem; Solubility in aqueous buffer) [µM]	Solubility (physchem; pH 7.3, Solubility) [µM]	IC50 ([3]; Homo sapiens, HeLa Kyoto, 72 h, read-out: IC50 of the inhibition of cell proliferation) [µM]	Fold weaker IC50 than blebbistatin's (cell proliferation) ([3]; day 3)	Time at which all embryos died (zebrafish embryos) [h]	IC50 [4] [µM]	IC50 (smooth muscle myosin II) [µM]	IC50 (Acanthamoeba myosin II) [µM]	Toxicity in live zebrafish embryo tests (zebrafish embryo)	Solubility (limited solubility) ([5]; depending on the conditions of the measurements) [µM]	Concentration above which slow precipitation is observed ([5]; water)	Photostability: change of absorption spectrum on irradiation [6]
Cc1ccc2c(c1)C(=O)[C@]1(O)CCN(c3ccc(N)cc3)C1=N2 [para-aminoblebbistatin]	80	90	6.7 ± 1.9	6.6 ± 2	1.7	4	426 ± 1.7 (≈ 131 µg/mL)	440 (≈ 135 µg/mL)	298 ± 2.5 (≈ 91.6 µg/mL)	17.8 ± 4.7	2–3 times								
Cc1ccc2c(c1)C(=O)C1(O)CCN(c3ccccc3)C1=N2 (stereo not shown) [blebbistatin]												69	0.5 to 5	79.6	83	highly toxic	7 to 20	above 10 μM	changed markedly

From publication PMC4886532, “A highly soluble, non-phototoxic, non-fluorescent blebbistatin derivative” (Scientific Reports, 2016)
